From patent publication US20080113962A1, “Condensed Tricyclic Benzimidazoles For the Treatment of Gastrointestinal Disorders” (Aitana Pharma AG, priority 2004, published 2008)

Assays:
[1] = system: pentagastrin-stimulated acid secretion of the perfused rat stomach; test: Secretion-inhibiting action on the perfused rat stomach (pentagastrin-stimulated acid secretion); assay type: in vivo; conditions: anesthetized CD rat, dose 3.0 μmol/kg i.d. (intraduodenal)
Excerpt: Testing of the Secretion-Inhibiting Action on the Perfused Rat Stomach
In Table A which follows, the influence of the compounds of the formula 1 according to the invention on the pentagastrin-stimulated acid secretion of the perfused rat stomach after intraduodenal administration in vivo is shown.
The abdomen of anesthetized rats (CD rat, female, 200-250 g; 1.5 g/kg i.m. urethane) was opened after tracheotomy by a median upper abdominal incision and a PVC catheter was fixed transorally in the esophagus and another via the pylorus such that the ends of the tubes just projected into the gastric lumen. The catheter leading from the pylorus led outward into the right abdominal wall through a side opening.
After thorough rinsing (about 50-100 ml), warm (37° C.) physiological NaCl solution was continuously passed through the stomach (0.5 ml/min, pH 6.8-6.9; Braun-Unita I). The pH (pH meter 632, glass electrode EA 147; φ=5 mm, Metrohm) and, by titration with a freshly prepared 0.01N NaOH solution to pH 7 (Dosimat 665 Metrohm), the secreted HCl were determined in the effluent in each case collected at an interval of 15 minutes.
The gastric secretion was stimulated by continuous infusion of […] (=1.65 ml/h) of i.v. pentagastrin (left femoral vein) about 30 min after the end of the operation (i.e. after determination of 2 preliminary fractions). […]

| melting point | Structure (SMILES) | Inhibition of acid secretion [1] |
| --- | --- | --- |
| 228 to 229 °C | Cc1nc2c3c(ccc2n1C)[C@H](O)C[C@H](c1ccccc1)O3 (relative stereo) [Example 1, cis-2,3-Dimethyl-8-phenyl-3,6,7,8-tetrahydro-chromeno[7,8-d]imidazol-6-ol] | – |
| 148 to 149 °C | COCCOC1CC(c2ccccc2)Oc2c1ccc1c2nc(C)n1C (stereo not shown) [Example 2, 6-(2-Methoxy-ethoxy)-2,3-dimethyl-8-phenyl-3,6,7,8-tetrahydro-chromeno[7,8-d]imidazole] | >50% |
| 177 to 178 °C | CCOC1CC(c2ccccc2)Oc2c1ccc1c2nc(C)n1C (stereo not shown) [Example 3, 6-(2-Ethoxy)-2,3-dimethyl-8-phenyl-3,6,7,8-tetrahydro-chromeno[7,8-d]imidazole] | – |
